Structures can show the parent of a compound that is named as a salt. Where two headings read alike, the source gives them in different places.
Legend:
Asu-ACR-16 [1] = target: T1, Asu-ACR-16 (Ascaris suum, UniProt F1KYJ9); experiment: cell-based; type: cell-based
T1 construct: Full-length Asu-acr-16 cDNA was amplified with the forward primer; expressed in transfected cells; host or cells: Xenopus laevis oocytes injected with Asu-acr-16 cRNA plus Asu-ric-3 cRNA
T1 sequence (F1KYJ9 1-504): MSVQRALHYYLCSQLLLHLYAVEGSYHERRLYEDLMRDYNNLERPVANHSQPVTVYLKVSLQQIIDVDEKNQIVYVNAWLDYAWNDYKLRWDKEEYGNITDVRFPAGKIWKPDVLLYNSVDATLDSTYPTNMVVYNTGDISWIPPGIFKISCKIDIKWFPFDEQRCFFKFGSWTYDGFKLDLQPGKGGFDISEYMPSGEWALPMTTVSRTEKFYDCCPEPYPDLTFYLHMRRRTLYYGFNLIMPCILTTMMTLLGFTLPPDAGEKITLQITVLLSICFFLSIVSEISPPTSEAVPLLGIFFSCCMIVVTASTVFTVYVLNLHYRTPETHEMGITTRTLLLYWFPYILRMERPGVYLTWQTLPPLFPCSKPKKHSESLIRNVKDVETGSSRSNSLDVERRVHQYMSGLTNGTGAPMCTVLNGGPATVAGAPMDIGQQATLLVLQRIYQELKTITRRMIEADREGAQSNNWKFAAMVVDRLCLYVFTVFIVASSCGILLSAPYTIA
Protocol: (§1) We used two-electrode voltage-clamp electrophysiology to record the inward current generated by the activated Asu-ACR-16 receptors expressed in X. laevis oocytes. 100 μM BAPTA-AM (final concentration) was added into the oocyte incubation solution 4 h prior to recording, to prevent the current produced by the endogenous calcium-activated chloride channels during recording. An Axoclamp 2B amplifier (Molecular Devices, CA, USA) was used for recording and oocytes were held at −60 mV. A PC computer with software Clampex 9.2 (Molecular Devices, CA, USA) was used to acquire the recording data. The microelectrodes used to measure current in oocytes were pulled on a Flaming/Brown horizontal electrode puller (Model P-97, Sutter Instruments), filled with 3M KCl and had resistances of 20–30 MΩ. The microelectrode tips were broken back carefully with Kimwipes (Wilmington, NC, USA) to reduce the resistance to 2–5 MΩ. […] Oocytes were placed into a tiny groove of the narrow oocyte recording chamber.
(§2) 100 μM acetylcholine was applied initially for 10 s as a control to check the viability of the oocytes and Asu-ACR-16 expression for all the recordings. Recording solution was then used to wash out the drug from the oocytes for 2–3 min before next application of drug perfusion.
(§3) The data from electrophysiological recordings were analyzed using Clampfit 9.2 (Molecular Devices, CA, and USA) and GraphPad Prism 5.0 (Graphpad Software Inc., CA, USA). […] Concentration-response relationships or concentration-inhibition (%) relationships were analyzed by fitting data points into the Hill equation, with at least four replicates of each experiment set.

Asu-ACR-16 [2] = target: T1, Asu-ACR-16; experiment: cell-based; type: cell-based; details: for Hill slope (nH): inhibitory concentration-response vs 100 μM ach; for Inhibitionmax (maximum inhibition): of currents elicited by 100 μM ach
Protocol: The nanoject II microinjector (Drummond Scientific, PA, USA) was used to injected the cRNA mixture into the animal pole of the de-folliculated X. laevis oocyte (Ecocyte Bioscience, Austin, TX, USA).
as §1, §2, §3

C. elegans strain N2 = experiment: C. elegans L4 larvae motility (thrashing) in M9 buffer; type: in vivo, Caenorhabditis elegans; details: for Effect on locomotion of worms vs negative control: 100 μM, 0-20 min
Protocol: The wild-type C. elegans strain N2 were obtained from the Caenorhabditis Genetics Center (University of Minnesota, MN, USA). […] We counted the number of worms with normal motility in M9 buffer with diluted drugs from the stock solutions (≤1% DMSO) at 0, 5, 10, 15 and 20 min. Five replicates were applied for each treatment. Motility between negative control (1% DMSO, final concentration) and drug treated worms were compared at each time point using student t-test.

[3] = inhibition of currents elicited by 100 μM ach, oocytes held at −60 mV, mean ± S.E.M., read-out: IC50

Compound | Hill slope (nH) of ach curve (Asu-ACR-16 [1]; in presence of 3 μM hit) | Hill slope (nH) (Asu-ACR-16 [2]; mean ± S.E.M.) | Inhibitionmax (maximum inhibition) (Asu-ACR-16 [2]; mean ± S.E.M.) [%] | Effect on locomotion of worms vs negative control (C. elegans strain N2; L4 larvae) | IC50 (Asu-ACR-16 [2]; [3]) [µM] | other results
CC(C)(C)[C@]1(O)CCN2C[C@H]3c4ccccc4CCc4cccc(c43)[C@@H]2C1 [(+)-butaclamol Cl, (+)-butaclamol hydrochloride] | 12.75 ± 3.63 | 1.34 ± 0.29 | 79.53 ± 12.41 |  |  | Hill slope (nH) of ach curve (Asu-ACR-16 [1]; in presence of 1 μM hit): 9.64 ± 4.14; IC50 (Asu-ACR-16 [2]): 9.85 ± 2.37 µM
Cl.N#Cc1ccc2c(c1)CCN(CC[C@H]1CC[C@H](NC(=O)c3ccnc4ccccc34)CC1)C2.O [SB-277011-A, SB-277011-A hydrochloride hydrate] |  |  |  |  |  | Time to recovery of normal motility (C. elegans strain N2; L4 larvae, 30 μM): ≤ 20 min; Drop in number of normal worms with thrashing-like movement (C. elegans strain N2; L4 larvae, 30 μM, 5 min, p < 0.01): 60%; Number of worms with motility that appeared normal (C. elegans strain N2; L4 larvae, 30 μM, 10 min, p < 0.05): 50%; Number of worms with motility that appeared normal (C. elegans strain N2; L4 larvae, 30 μM, 15 min, p > 0.05): 85%; Number of worms with motility that appeared normal (C. elegans strain N2; L4 larvae, 30 μM, after 20 min): returned to near negative control values; Effect on motility of adult C. elegans compared with larvae (C. elegans strain N2; adult worms): less effective on adult C. elegans
CC(=O)OCC[N+](C)(C)C [ach, acetylcholine chloride] |  |  |  |  |  | Hill slope (nH) (Asu-ACR-16 [1]; ach alone (control, absence of hits)): 3.05 ± 0.07; Emax (Asu-ACR-16 [1]; read-out: Imax (maximum response)): 97.5 ± 1.19%
O=C(OCC1c2ccccc2-c2ccccc21)N1CCC(C(=O)O)(c2cccc3ccccc23)CC1 [fmoc-1, fmoc-4-(naphthalen-1-yl)-piperidine-4-carboxylic acid] | 1.76 ± 0.21 | 1.97 ± 0.37 | 82.49 ± 4.74 | No visual effects | 10 ± 1.38 | 
O=C(OCC1c2ccccc2-c2ccccc21)N1CCC(C(=O)O)(c2ccc3ccccc3c2)CC1 [fmoc-2, fmoc-4-(naphthalen-2-yl)-piperidine-4-carboxylic acid] | 2.54 ± 0.18 | 1.22 ± 0.17 | 80.34 ± 10.32 | No visual effects | 16.7 ± 1.95 | 
c1ccc([C@H]2CN3CCSC3=N2)cc1 [levamisole, Levamisole hydrochloride] |  |  |  |  |  | Time without recovery of normal motility (C. elegans strain N2; L4 larvae, 30 μM): > 24 h
